Results published in patent US5580542A, “Method of testing for nephritis” (Kureha Kagaku Kogyo K.K., priority 1993, dated 1996).
Several values for one entry are separate records, joined by “and”; a condition that tells them apart may be missing. Identical values can stand only once.

What was measured:
A7r5 = test: Test 1: acetyltransferase activity, conversion of p-aminobenzoic acid to p-acetamidobenzoic acid in culture (GC-MS); assay type: cell-based, rat; settings: A7r5 (fetal thoracic aortic smooth muscle); culture medium after 2 to 3 days
Description: (§1) In this test, the activity of acetyltransferase was evaluated by an in-vitro experiment with respect to p-aminobenzoic acid.
(§2) The left and right kidneys of 7 weeks-old Sprague-Dawley female rats were excised. After the renal cortices were shredded, mesangial cells were prepared by the Sieving's method. For the sake of comparison, "A7r5" (trade name, derived from fetal thoracic aortic smooth muscle), "Clone 9" (trade name. derived from liver), "H9 c2 (2-1)" (trade name, derived from cardiorhabdium), "IEC-18" (trade name, derived from the small intestine) and "NRK-52E" (trade name, derived from epithelial cells of renal tubule), all products of Flow Corp., U.S.A., were used as cells derived from rats.
(§3) Using as a culture medium "RPMI-1640" (trade name; product of Flow Corp.; U.S.A.) added with fetal bovine serum (product of GIBCO Corp.) whose concentration was finally 10% in the medium, those cells were cultured in a 5% CO2 incubator. Since the p-amionbenzoic acid contained in RPMI-1640 was converted to p-acetamidobenzoic acid by the above culture, detection was conducted with respect to the p-acetamidobenzoic acid so converted.
(§4) Namely, 2 ml of each culture medium after the lapse of 2 to 3 days since its culture were subjected to centrifugal ultrafiltration to eliminate proteins. One ml of the filtrate was added with 30 μl of 1N hydrochloric acid to adjust the pH to pH 1. Added next were 10 μg of p-pentylbenzoic acid, as an internal standard, and 0.5 g NaCl. The resulting mixture was shaken three times together with 3 ml portions of ethyl acetate to conduct liquid/liquid extraction of the organic acid component. After the extract was dried under a nitrogen gas stream, 40 μl of N,O-bis(trimethylsilyl)trifluoroacetamide and 10 μl of trimethylchlorosilane were added. The resulting mixture was stirred at 60° C. for 1 hour so that the organic acid component was trimethylsilylated. The trimethylsilylated organic acid component was then detected by gas chromatography mass spectrometry. The activity of acetyltransferase was evaluated by the relative height of a peak corresponding to p-acetamidobenzoic acid. The following evaluation standard was employed:-: smaller than 50,000,+: 50,000 or greater but smaller than 500,000, ++: 500,000 or greater, all in terms of abundance.

Clone 9 = test: as above; assay type: cell-based, rat; settings: Clone 9 (liver); culture medium after 2 to 3 days
Description: as §1, §2, §3, §4

H9c2(2-1) = test: as above; assay type: cell-based, rat; settings: H9c2(2-1) (cardiorhabdium); culture medium after 2 to 3 days
Description: as §1, §2, §3, §4

IEC-18 = test: as above; assay type: cell-based, rat; settings: IEC-18 (small intestine); culture medium after 2 to 3 days
Description: as §1, §2, §3, §4

Mesangial cells = test: as above; assay type: cell-based, rat
Description: as §1, §2, §3, §4

NRK-52E = test: as above; assay type: cell-based, rat; settings: NRK-52E (epithelial cells of renal tubule); culture medium after 2 to 3 days
Description: as §1, §2, §3, §4

[1] = Test 2: urinal AcPAH/PAH ratio after Na-PAH in renal arterial ligature rats; assay type: in vivo, Sprague-Dawley male rats; settings: 40 mg Na-PAH single shot jugular vein, 24 h urine; for urinal AcPAH/PAH ratio, individual rats: day 37 after operation
Description: In this test, an investigation was conducted about the relationship, if any, between the degree of ligature of the renal artery, which serves as an index for the degree of progress of the pathema of a kidney disease, and the concentration ratio of p-acetyl-aminohippuric acid (AcPAH) to p-aminohippuric acid (PAH) in urine.
Depending on whether the renal arterial carina ligating method was applied and if so, how tight the ligating method as applied, the rats were divided into three groups, each consisting of three of the rats, that is, a sham-operation group (i.e., control), a 1/2 renal arterial ligature group (only one kidney was functioning) and a 5/6 renal arterial ligature group. On the 37th day after the operation, an aqueous solution of 40 mg of sodium p-aminohippurate (Na-PAH) in 200 μl of distilled water was administered as a single shot to the jugular vein of each rat under anesthesia with ethyl ether. The rat was then immediately placed in metabolism test cage, and urine was collected over 24 hours. The concentrations of AcPAH and PAH in urine were analyzed by high-performanceliquid chromatography in a manner to be described subsequently herein, whereby the ratio of AcPAH to PAH (AcPAH/PAH) was determined.
Namely, 150 μl of methanol, which contained 1 μg of vanillic acid as an internal standard substance, were added to 50 μl of fivefold dilute urine. After the resulting mixture was stirred and centrifuged, the supernatant was collected and was subjected to filtration by centrifugation. By high-performance liquid chromatography, 10 μl of the supernant so obtained were quantitatively analyzed under the following analysis conditions:
Column: "Unisil Pack 250B" (trade name, product of GL Science Inc.)
Mobile phase: water/acetic acid/acetonitrile=93.5/0.5/6 (pH 3, approximately)
Column oven temperature: 40° C.

[2] = Test 3: time-dependent stability of urinal AcPAH/PAH ratio after Na-PAH; assay type: in vivo, Sprague-Dawley male rats; settings: 40 mg Na-PAH single shot jugular vein, 24 h urine, test repeated 7 times on different days
Description: In this test, an investigation was conducted about the time-dependent stability of test results which were obtained using an acetyltransferase activity measuring agent according to the present invention.
An aqueous solution of 40 mg of sodium p-aminohippurate (Na-PAH) in 200 μl of distilled water was administered as a single shot to the jugular vein of each rat under anesthesia with ethyl ether. The rat was then immediately placed in metabolism test cage, and urine was collected over 24 hours. The concentrations of AcPAH and PAH in urine were analyzed as in Test 2, whereby the AcPAH/PAH ratio was determined. The above test was repeated 7 times on different days so that its average value, standard deviation (S.D.) and coefficient of variations (C.V.) were determined.

[3] = Test 4: concentrations of PAH and AcPAH in blood after Na-PAH; assay type: in vivo, Sprague-Dawley male rats; settings: 40 mg Na-PAH single shot jugular vein; serum at 30, 60, 90, 120 minutes
Description: In the test, the rate of secretion of an acetyltransferase activity measuring agent according to this invention into urine was tested.
An aqueous solution of 40 mg of sodium p-aminohippurate (Na-PAH) in 200 μl of distilled water was administered as a single shot to the jugular vein of each rat under anesthesia with ethyl ether. Upon elapsed time of 30 minutes, 60 minutes, 90 minutes and 120 minutes, the concentrations of PAH and AcPAH in blood were measured by high-performance liquid chromatography. Serum was used in an amount of 50 μl each time. The pretreatment method and analysis conditions were the same as in Test 2.

[4] = 1/2 Renal arterial ligature group (n = 3)
[5] = 5/6 Renal arterial ligature group (n = 3)

Compound: Nc1ccc(C(=O)O)cc1 [p-aminobenzoic acid]
- Evaluation results: activity of acetyltransferase by relative height of peak corresponding to p-acetamidobenzoic acid (A7r5): - (smaller than 50,000)
- Evaluation results: activity of acetyltransferase by relative height of peak corresponding to p-acetamidobenzoic acid (Clone 9): - (smaller than 50,000)
- Evaluation results: activity of acetyltransferase by relative height of peak corresponding to p-acetamidobenzoic acid (H9c2(2-1)): - (smaller than 50,000)
- Evaluation results: activity of acetyltransferase by relative height of peak corresponding to p-acetamidobenzoic acid (IEC-18): - (smaller than 50,000)
- N-acetyltransferase activity to p-aminobenzoic acid (in words) (Mesangial cells; Mesangial cells): confirmed to have N-acetyltransferase activity
- Evaluation results: activity of acetyltransferase by relative height of peak corresponding to p-acetamidobenzoic acid (Mesangial cells; Mesangial cells from rat renal cortex, culture medium after 2 to 3 days): ++ (500,000 or greater)
- Evaluation results: activity of acetyltransferase by relative height of peak corresponding to p-acetamidobenzoic acid (NRK-52E): - (smaller than 50,000)

Compound: Nc1ccc(C(=O)NCC(=O)[O-])cc1.[Na+]
- urinal AcPAH/PAH ratio, Ave. [1, 4]: 0.146
- urinal AcPAH/PAH ratio, individual rats [1, 4]: 0.144 and 0.153 and 0.141
- urinal AcPAH/PAH ratio, Ave. [1, 5]: 0.250
- urinal AcPAH/PAH ratio, individual rats [1, 5]: 0.236 and 0.242 and 0.272
- urinal AcPAH/PAH ratio, Ave. ([1]; Sham-operation group (n = 3)): 0.125
- urinal AcPAH/PAH ratio, individual rats ([1]; Sham-operation group (n = 3)): 0.132 and 0.121 and 0.123
- Urinal AcPAH/PAH, Ave. ([2]; Rat #1): 0.125
- Urinal AcPAH/PAH, Ave. ([2]; Rat #2): 0.100
- Urinal AcPAH/PAH, Ave. ([2]; Rat #3): 0.131

Compound: Nc1ccc(C(=O)NCC(=O)O)cc1 [PAH, p-aminohippuric acid]
- elimination of PAH from blood (concentration in blood versus time, FIG. 1) [3]: substantially eliminated from blood in 120 minutes after the administration

Compound: CC(=O)Nc1ccc(C(=O)NCC(=O)O)cc1 [AcPAH, p-acetyl-aminohippuric acid]
- concentration of metabolite AcPAH in blood versus time (FIG. 2) [3]: becomes low in concentration in 120 minutes after the administration
